Literature values as cited in patent US20010036486A1, “Method for treating nicotine addiction and deterring tobacco use with hypericum perforatum” (priority 2000, published 2001).

Conditions: small study; Edward et al. 1989

## CN(C)CCC=C1c2ccccc2COc2ccccc21 [doxepin]
  help for smoking cessation: showed some promise for helping smoking cessation
